Assay results from ChEMBL document CHEMBL1133789, “The discovery of anthranilic acid-based MMP inhibitors. Part 1: SAR of the 3-position” (Bioorg Med Chem Lett, 2001).
Values belong to the compound of their own block, whether it stands above or below them. Calls of active or inactive are those of the source.

Tests used:
[1] = target: T1, Interstitial collagenase (Homo sapiens) (UniProt P03956); assay: Inhibition of Matrix metalloprotease-1 at 1 uM
T1 sequence (whole entry): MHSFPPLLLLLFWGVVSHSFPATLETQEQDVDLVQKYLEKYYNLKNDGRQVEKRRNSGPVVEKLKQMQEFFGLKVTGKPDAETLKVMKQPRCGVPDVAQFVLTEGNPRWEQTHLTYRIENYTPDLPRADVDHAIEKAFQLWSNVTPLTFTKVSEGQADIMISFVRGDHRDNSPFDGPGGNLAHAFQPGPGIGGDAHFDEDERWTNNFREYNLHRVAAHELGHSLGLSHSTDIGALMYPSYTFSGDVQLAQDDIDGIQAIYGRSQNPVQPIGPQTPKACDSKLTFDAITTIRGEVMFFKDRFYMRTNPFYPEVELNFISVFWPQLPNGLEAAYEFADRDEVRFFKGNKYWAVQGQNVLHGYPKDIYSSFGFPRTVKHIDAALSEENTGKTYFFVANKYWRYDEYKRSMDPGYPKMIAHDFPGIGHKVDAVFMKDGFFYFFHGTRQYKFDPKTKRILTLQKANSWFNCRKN

Collagenase 3 = Collagenase 3 (Homo sapiens, UniProt P45452)
Description: Inhibitory activity against Matrix metalloprotease-13

[2] = target: T2, Matrix metalloproteinase-9 (Homo sapiens, UniProt P14780); assay: Inhibitory activity against Matrix metalloprotease-9
Interstitial collagenase = target: T3, Interstitial collagenase (Homo sapiens, UniProt P03956); assay: Inhibitory activity against Matrix metalloprotease-1
T3 sequence (P03956 whole entry): T1 sequence (whole entry)

[3] = target: T1, Interstitial collagenase (Homo sapiens); assay: Inhibition of Matrix metalloprotease-1 (inactive)
Rattus norvegicus = assay: In vivo inhibition of collagen degradation in a rat sponge wrapped cartilage model at a dose of 50 mg/kg ip; assay type: functional; conditions: route intraperitoneal
[4] = target: T2, Matrix metalloproteinase-9; assay: Tested the po dose effective against Matrix metalloprotease-9 in the dialysis tubing implant assay; assay type: functional, organism-based
[5] = target: T2, Matrix metalloproteinase-9; assay: Dose at which the compound was equipotent with CGS-27023 against matrix metalloprotease-9 in the dialysis tubing implant assay; assay type: functional
Bos taurus [6] = species on record: Bos taurus; assay: Inhibition of collagen degradation in a bovine articular cartilage assay; assay type: functional
[7] = target: T1, Interstitial collagenase (Homo sapiens); assay: Inhibition of Matrix metalloprotease-1 at 1 uM (inactive)
Bos taurus [8] = species on record: Bos taurus; assay: animal or person; conditions: po, read-out: Inhibition
[9] = target: Disintegrin and metalloproteinase domain-containing protein 17 (Homo sapiens, UniProt P78536)
Disintegrin and metalloproteinase domain-containing protein 17, sequence (P78536 whole entry, the tested form may be a part): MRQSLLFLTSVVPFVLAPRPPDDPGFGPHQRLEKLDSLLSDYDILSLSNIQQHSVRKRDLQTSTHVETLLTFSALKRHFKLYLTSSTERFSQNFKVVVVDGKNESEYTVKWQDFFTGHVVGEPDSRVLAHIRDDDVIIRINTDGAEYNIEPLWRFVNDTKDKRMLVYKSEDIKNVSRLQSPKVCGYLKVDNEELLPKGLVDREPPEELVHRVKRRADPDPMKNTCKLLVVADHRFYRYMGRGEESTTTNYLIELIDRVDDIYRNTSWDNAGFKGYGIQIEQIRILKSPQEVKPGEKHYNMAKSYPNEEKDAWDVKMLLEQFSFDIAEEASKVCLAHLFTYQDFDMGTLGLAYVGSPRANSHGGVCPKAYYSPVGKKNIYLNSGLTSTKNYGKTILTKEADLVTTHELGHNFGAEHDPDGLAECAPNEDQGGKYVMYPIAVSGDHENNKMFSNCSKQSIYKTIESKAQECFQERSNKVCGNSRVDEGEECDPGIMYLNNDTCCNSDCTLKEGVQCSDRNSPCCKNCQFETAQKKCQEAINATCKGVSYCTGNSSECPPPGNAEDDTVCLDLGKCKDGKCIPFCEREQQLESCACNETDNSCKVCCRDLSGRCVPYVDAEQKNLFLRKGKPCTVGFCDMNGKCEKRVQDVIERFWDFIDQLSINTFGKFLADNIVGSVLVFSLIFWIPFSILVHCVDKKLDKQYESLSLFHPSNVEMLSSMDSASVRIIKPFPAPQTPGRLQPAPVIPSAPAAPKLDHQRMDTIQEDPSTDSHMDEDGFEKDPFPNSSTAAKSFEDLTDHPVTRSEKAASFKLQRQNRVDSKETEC
Description: Inhibition of TNF-alpha converting enzyme (TACE)

T2 sequence (P14780 whole entry): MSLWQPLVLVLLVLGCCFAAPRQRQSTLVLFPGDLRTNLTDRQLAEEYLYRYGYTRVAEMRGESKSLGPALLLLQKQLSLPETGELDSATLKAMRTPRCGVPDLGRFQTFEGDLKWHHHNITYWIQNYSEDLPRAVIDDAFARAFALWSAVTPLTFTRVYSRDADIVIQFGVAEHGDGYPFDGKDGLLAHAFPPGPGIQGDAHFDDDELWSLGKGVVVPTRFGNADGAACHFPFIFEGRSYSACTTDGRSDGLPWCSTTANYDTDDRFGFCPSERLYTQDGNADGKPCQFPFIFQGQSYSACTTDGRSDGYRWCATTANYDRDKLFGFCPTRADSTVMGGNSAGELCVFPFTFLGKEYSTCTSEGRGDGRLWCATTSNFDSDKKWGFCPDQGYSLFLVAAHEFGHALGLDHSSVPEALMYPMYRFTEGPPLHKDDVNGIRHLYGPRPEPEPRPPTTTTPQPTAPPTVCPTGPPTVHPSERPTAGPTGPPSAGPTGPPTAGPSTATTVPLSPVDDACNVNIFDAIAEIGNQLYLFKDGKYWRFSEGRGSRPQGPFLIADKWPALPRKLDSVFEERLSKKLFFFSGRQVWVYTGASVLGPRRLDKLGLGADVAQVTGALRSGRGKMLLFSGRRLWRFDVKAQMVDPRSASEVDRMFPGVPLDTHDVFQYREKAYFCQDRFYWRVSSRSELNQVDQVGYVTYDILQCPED

Structure (SMILES): COc1ccc(S(=O)(=O)N(Cc2ccccc2)c2c(C(=O)NO)cccc2C(F)(F)F)cc1
inhibition [1]: 41%
IC50 (Collagenase 3): 136 nM

Structure (SMILES): COc1ccc(S(=O)(=O)N(Cc2ccccc2)c2c(OC(C)(C)C(=O)NO)cccc2C(=O)NO)cc1
IC50 [2]: 4 nM
IC50 (Interstitial collagenase): 597 nM

inhibition [3]: inactive
Structure (SMILES): COc1ccc(S(=O)(=O)N(Cc2ccccc2)c2ccc(C(=O)NO)cc2)cc1

ED50 [4]: 33 mg/kg
DOSE [5]: 50 mg/kg
IC50 (Interstitial collagenase): 143 nM
Structure (SMILES): COc1ccc(S(=O)(=O)N(Cc2cccnc2)c2c(C)cccc2C(=O)NO)cc1
inhibition in vivo at 50 mg/kg (Rattus norvegicus): 51%
Inhibition (Bos taurus [6]): 49%

Structure (SMILES): COc1ccc(S(=O)(=O)N(Cc2ccccc2)c2c(C(=O)NO)cccc2[N+](=O)[O-])cc1
IC50 [2]: 13 nM
IC50 (Collagenase 3): 42 nM
IC50 (Interstitial collagenase): 202 nM

inhibition [7]: inactive
Structure (SMILES): COc1ccc(S(=O)(=O)N(Cc2ccccc2)c2cccc(C(=O)NO)c2)cc1

Structure (SMILES): COC(=O)c1cccc(C(=O)NO)c1N(Cc1cccnc1)S(=O)(=O)c1ccc(OC)cc1
IC50 [2]: 6 nM

IC50 (Interstitial collagenase): 520 nM
Structure (SMILES): COc1ccc(S(=O)(=O)N(Cc2ccccc2)c2c(OC)cccc2C(=O)NO)cc1

Structure (SMILES): COc1ccc(S(=O)(=O)N(Cc2cccnc2)[C@@H](C(=O)NO)C(C)C)cc1 [CGS-27023A]
inhibition in vivo at 50 mg/kg (Bos taurus [8]): 52%

Structure (SMILES): COc1ccc(S(=O)(=O)N(Cc2ccccc2)c2c(C(=O)NO)cccc2N(C)C)cc1
inhibition [1]: 19%

Structure (SMILES): COc1ccc(S(=O)(=O)N(Cc2ccccc2)c2c(OCC(=O)NO)cccc2C(=O)NO)cc1
IC50 [2]: 2 nM
IC50 [9]: 81 nM
IC50 (Collagenase 3): 1 nM
